Assay results as given in the NIST ThermoML archive (doi:10.1021/acs.jced.5b00679).
± gives the expanded uncertainty stated by the source.

What was measured:
[1] = Crystal; DTA
[2] = Molar enthalpy of transition or fusion; details: Crystal; DSC

Compound	Normal melting temperature [1]	Molar enthalpy of transition or fusion [2]
CCn1c2c(c3c1CCCC3)CCCC2 [9-ethyl-2,3,4,5,6,7,8,9-octahydro-1H-carbazole]	43 ± 2 °C	4.92 ± 0.139 kcal/mol
Cn1c2ccccc2c2ccccc21 [9-methyl-9H-carbazole]	88 ± 2 °C	3.93 ± 0.136 kcal/mol
CCCCn1c2ccccc2c2ccccc21 [N-butyl-9H-carbazole]	57.5 ± 2 °C	5.45 ± 0.136 kcal/mol
CC(C)n1c2ccccc2c2ccccc21 [9-(1-methylethyl)carbazole]	120.8 ± 2 °C	4.36 ± 0.184 kcal/mol
c1ccc2c3c([nH]c2c1)CCCC3 [2,3,4,9-tetrahydro-1H-carbazole]	118.2 ± 2 °C	4.27 ± 0.1 kcal/mol
CCn1c2c(c3ccccc31)CCCC2 [9-ethyl-2,3,4,9-tetrahydrocarbazole]	9.2 ± 2 °C	2.97 ± 0.0765 kcal/mol
CCCn1c2ccccc2c2ccccc21 [N-propyl-9H-carbazole]	47.2 ± 2 °C	4.68 ± 0.117 kcal/mol
c1ccc2c(c1)[nH]c1ccccc12 [9H-carbazole]	244.0 ± 2 °C	6.62 ± 0.201 kcal/mol
CCn1c2ccccc2c2ccccc21 [9-ethylcarbazole]	69.2 ± 2 °C	3.96 ± 0.12 kcal/mol
